{
  "source": "paper PMC7080406",
  "about": "(eLife, 2020)",
  "key": {"[1]": {"target": "T1, 5-HT7A (Homo sapiens, UniProt P34969)", "T1 construct": "expressed in transfected cells; host or cells: HEK293T, transient transfection (NIMH PDSP)", "T1 sequence (P34969 1-445 isoform P34969-2)": "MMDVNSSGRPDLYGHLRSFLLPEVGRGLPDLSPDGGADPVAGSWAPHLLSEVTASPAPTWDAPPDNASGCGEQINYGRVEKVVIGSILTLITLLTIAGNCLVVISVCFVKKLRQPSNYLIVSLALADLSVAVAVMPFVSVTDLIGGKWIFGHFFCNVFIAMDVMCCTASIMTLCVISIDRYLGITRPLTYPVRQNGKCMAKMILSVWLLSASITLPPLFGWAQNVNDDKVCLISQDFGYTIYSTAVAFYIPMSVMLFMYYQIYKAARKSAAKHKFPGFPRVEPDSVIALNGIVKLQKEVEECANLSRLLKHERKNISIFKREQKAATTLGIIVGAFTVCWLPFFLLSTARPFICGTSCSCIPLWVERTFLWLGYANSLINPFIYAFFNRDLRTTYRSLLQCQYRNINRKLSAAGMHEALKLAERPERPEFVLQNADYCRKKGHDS", "experiment": "Off-target radioligand binding, 5-HT7A", "method": "(§1) The Radioligand binding assays were conducted by the NIMH Psychoactive Drug Screening Program (PDSP). The NIMH PDSP is directed by Bryan L. Roth, MD, PhD, at the University of North Carolina at Chapel Hill, North Carolina, and Program Officer Jamie Driscoll at NIMH, Bethesda, MD. Binding assay procedures and protocols are also available online at http://pdspdb.unc.edu/pdspWeb/?site=assays. […] Assay plates were sealed and incubated for 4 hr at 37°C in a humidified incubator until harvesting. Plates were harvested using vacuum filtration onto 0.3% polyethyleneimine pre-soaked 96-well Filtermat A (PerkinElmer) and washed three times with cold wash buffer (50 mM Tris, pH 7.4). Filters were dried and melted with a scintillation cocktail (Meltilex, PerkinElmer). Radioactivity was counted using a Wallac TriLux Microbeta counter (PerkinElmer). Results were analyzed using GraphPad Prism 7.0."}, "[2]": {"target": "T2, MT2 (Homo sapiens, UniProt P49286)", "T2 sequence (P49286 1-362)": "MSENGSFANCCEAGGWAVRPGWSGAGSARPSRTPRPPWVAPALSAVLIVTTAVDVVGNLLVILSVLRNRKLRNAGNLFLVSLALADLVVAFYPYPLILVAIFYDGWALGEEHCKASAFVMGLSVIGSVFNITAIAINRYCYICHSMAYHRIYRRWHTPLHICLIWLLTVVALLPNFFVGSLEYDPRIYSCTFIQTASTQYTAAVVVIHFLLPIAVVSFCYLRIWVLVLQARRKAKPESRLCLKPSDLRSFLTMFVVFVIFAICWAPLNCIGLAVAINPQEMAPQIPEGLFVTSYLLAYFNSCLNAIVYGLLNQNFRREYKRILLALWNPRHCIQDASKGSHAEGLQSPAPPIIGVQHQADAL", "experiment": "[3H]melatonin competition radioligand binding, MT2 membranes", "set-up": "expressed in transfected cells; host or cells: HEK293T (ATCC CRL-11268), transient transfection", "details": "read-out: MT2 pKi ± SEM (converted)", "method": "as §1"}, "[3]": {"target": "T2, MT2", "experiment": "GloSensor Gi/o-mediated cAMP production inhibition assay, MT2", "format": "cell-based", "set-up": "expressed in transfected cells; host or cells: HEK293T (ATCC CRL-11268), transient transfection", "details": "for EC50: Gi/o mediated", "method": "(§2) Briefly, HEK293 T cells (as above) were transiently co-transfected with receptor (MT1 or MT2) and GloSensor cAMP (Promega) plasmids overnight, plated in Poly-L-Lysine coated 384-well white clear bottom plates in DMEM + 1% dialyzed FBS. Cells were used for assays at a minimum of 6 hr after plating. Culture medium was first removed and cells were stimulated with drugs in assay buffer (1x HBSS, 20 mM HEPES, 1 mg/ml BSA, 0.1 mg/ml ascorbic acid, pH 7.4) for 15 min at room temperature (this and all the following steps), followed by addition of a mixture of isoproterenol (final of 100 nM) and luciferin (final of 1 mM) for Gi/o-cAMP production inhibition assays and luciferin (final of 1 mM) for Gs-cAMP production assays. The plates were counted for luminescence after 25 min in a luminescence plate reader. Results were analyzed using GraphPad Prism 7.0."}, "[4]": {"target": "T2, MT2", "experiment": "Bias factor, Gi-cAMP versus Tango (Black and Leff operational model), MT2", "format": "cell-based", "set-up": "expressed in transfected cells; host or cells: HEK293T (ATCC CRL-11268), transient transfection", "details": "G-protein over β-arrestin at MT2; reference melatonin; 10^ΔΔLog(τ/KA)", "method": "Bias factors were estimated according to the published procedure [Kenakin et al. (2012)] with modifications. Briefly, normalized and pooled results were analyzed by fitting the Black and Leff operational model in Prism 7.0 to obtain Log(τ/KA) values for each pathway (Tango and Gi-cAMP). Within each signaling pathway, a difference of Log(τ/KA), ΔLog(τ/KA), between a test compound and selected reference (melatonin in this case) was calculated. For a testing compound, the difference of ΔLog(τ/KA), ΔΔLog(τ/KA), was then obtained between two pathways. The bias factor is 10^ΔΔLog(τ/KA)."}, "[5]": {"target": "T3, MT1 (Homo sapiens, UniProt P48039)", "T3 construct": "expressed in transfected cells; host or cells: HEK293T (ATCC CRL-11268), transient transfection", "experiment": "GloSensor Gi/o-mediated cAMP production inhibition assay, MT1", "format": "cell-based", "details": "for EC50: Gi/o mediated", "method": "as §2"}, "[6]": {"target": "T4, 5-HT1D (Homo sapiens, UniProt P28221)", "T4 construct": "expressed in transfected cells; host or cells: HEK293T, transient transfection (NIMH PDSP)", "experiment": "Off-target radioligand binding, 5-HT1D", "method": "as §1"}, "[7]": {"target": "T5, MT1 Y281F mutant receptor (Homo sapiens, UniProt P48039, Y281F)", "T5 construct": "expressed in transfected cells; host or cells: HTLA cells (HEKT based)", "T5 sequence (P48039 whole entry Y281F)": "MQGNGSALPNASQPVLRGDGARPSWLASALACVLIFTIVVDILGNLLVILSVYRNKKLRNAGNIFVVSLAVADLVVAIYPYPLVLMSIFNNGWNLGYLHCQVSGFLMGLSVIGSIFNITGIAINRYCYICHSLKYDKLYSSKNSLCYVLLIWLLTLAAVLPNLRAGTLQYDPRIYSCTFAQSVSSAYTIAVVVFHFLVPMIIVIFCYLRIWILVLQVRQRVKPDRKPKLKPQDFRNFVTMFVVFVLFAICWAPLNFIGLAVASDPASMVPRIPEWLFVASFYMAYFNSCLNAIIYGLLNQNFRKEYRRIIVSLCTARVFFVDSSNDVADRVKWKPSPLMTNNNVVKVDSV", "experiment": "Tango β-arrestin recruitment assay, MT1 Y281F mutant", "format": "cell-based", "method": "In brief, HTLA cells were transiently transfected with receptor TANGO DNA constructs overnight in DMEM with 10% FBS. Transfected cells were then plated into poly-L-Lys coated 384-well plates using DMEM supplemented with 1% dialyzed FBS. After 6 hr incubation, drug dilutions, prepared in DMEM with 1% dFBS, were added for incubation overnight (16–20 hr). Medium and drug solutions were removed, Bright-Glo reagent (20 uL/well) was added for luminescence counting 20 min later. Results were analyzed in GraphPad Prism 7.0."}, "[8]": {"details": "ligand efficiency (based on EC50)"}},
  "note": "Like-named read-outs stand apart in the source and are kept apart here.",
  "data": [
    {"smiles": "COc1ccc2[nH]cc(CCNC(N)=O)c2c1", "note": "[Compound 28, [2-(5-methoxy-1H-indol-3-yl)ethyl]urea]", "values": [
      {"measurement": "inhibition at 10 µM", "setting": "[1]; 10 μM", "result": "> 50", "unit": "%"},
      {"measurement": "Ki", "setting": "[1]; read-out: pKi, 5-HT7A (converted)", "result": 288, "unit": "nM"},
      {"measurement": "Ki", "setting": "[2]", "result": 23.4, "unit": "nM"},
      {"measurement": "MT2/MT1 Selectivity", "setting": "[3]; Antilog (log(Emax/EC50) MT2 - log (Emax/EC50) MT1), values below 1 = MT1 selectivity", "result": 0.7, "unit": "fold"},
      {"measurement": "EC50", "setting": "[3]; SEM, N = 3, read-out: MT2 pEC50 ± SEM (converted)", "result": 0.0447, "unit": "nM"},
      {"measurement": "EC50", "setting": "[3]; read-out: MT2 EC50", "result": 0.04, "unit": "nM"},
      {"measurement": "Emax", "setting": "[3]; MT2, activation compared to melatonin, read-out: MT2 Emax ± SEM", "result": "< 70", "unit": "%"},
      {"measurement": "MT2 LE", "setting": "[3]; [8]", "result": "0.85 kcal/mol per non-hydrogen atom"},
      {"measurement": "bias factor", "setting": "[4]", "result": 33.9},
      {"measurement": "EC50", "setting": "[5]; SEM, N = 3, read-out: MT1 pEC50 ± SEM (converted)", "result": 0.0407, "unit": "nM"},
      {"measurement": "EC50", "setting": "[5]; read-out: MT1 EC50", "result": 0.04, "unit": "nM"},
      {"measurement": "MT1 LE", "setting": "[5]; [8]", "result": "0.86 kcal/mol per non-hydrogen atom"},
      {"measurement": "Emax", "setting": "[5]; read-out: MT1 Emax ± SEM", "result": "95.3 ± 2.6", "unit": "%"},
      {"measurement": "inhibition at 10 µM", "setting": "[6]; 10 μM", "result": "> 50", "unit": "%"},
      {"measurement": "Ki", "setting": "[6]; read-out: pKi, 5-HT1D (converted)", "result": 1510, "unit": "nM"},
      {"measurement": "reduction of potency, MT1 Y281F versus WT", "setting": "[7]; Tango", "result": "> 100", "unit": "fold"},
      {"measurement": "EC50", "setting": "[7]; normalized individually (basal 0%, maximum 100%), mean ± SEM, minimum of 3 assays, read-out: pEC50, Tango, MT1 Y281F (converted)", "result": 4680, "unit": "nM"}
    ]}
  ]
}
